Data published in patent US20010046963A1, “Novel use of flavones” (priority 2000, published 2001).

Tests used:
COX-2 mRNA = assay: Semi-quantitative RT-PCR determination of COX-2 mRNA levels in HT-29 cells; format: cell-based; conditions: for COX-2/GAPDH [AUC]: HT-29 cells, 150 μM flavone, n = 4
Procedure: (§1) HT-29 cells (passage 106) were provided by ATCC and used between passage 150 and 200. Cells were cultured and passaged in RPMI-1640 supplemented with […] and 2 mM glutamine (all from GIBCO, Eggenstein, Germany). Antibiotics added were 100 U/ml penicillin and 100 μg/ml streptomycin (GIBCO). The cultures were maintained in a humidified atmosphere of 95% air and 5% CO2 at 37° C. Cells were passaged at preconfluent densities by the use of a solution containing 0.05% trypsin and 0.5 mM EDTA (GIBCO).
(§2) RNA from HT-29 cells was isolated at the times indicated in table 5 according to the method described by Chomczynski and Sacchi Anal. Biochem. 162 (1987) 156 with slight modifications. Reverse transcription was done with 5 μg of isolated RNA. First strand cDNA synthesis was accomplished with an oligo-(dT)15 primer (MBI Fermentas). Amplification of sequence specific fragments (Taq Polymerase was from Sigma) was performed with 30 cycles (95° C. denaturation for 1 min, 55° C. hybridization for 2 min, 72° C. extensions for 2 min; Personal Cycler, Biometra, Göttingen, Germany). RT-PCR products were separated on a 1% agrose gel and visualized by ethidium bromide. The amount of first strand used to amplify specific sequences was derived from the linear range of amplification. The amplified GAP-DH sequence was used as a constitutively expressed control. The amplivied products were photographed and the intensity of the bands was analyzed by the SigmaGel software. No products were obtained for all genes without reverse transcription […]. A λ-DNA/EcoRI+HindIII marker (MBI Fermentas) was used in all PCR experiments as a size control of the amplified products. Amplified cDNA sequences (primers were custom synthesized by Eurogentec, Seraing, Belgium) were GAP-DH: bp 558-1010; COX-2: bp 1366-1870, NFχB:bp 2832-3401.
(§3) That this effect on gene expression occurred selectively was shown by unaltered mRNA levels of the tumor suppressor p53.
(§4) Semi-quantitative determination of COX-2 and NFχB mRNA levels in HT-29 cells by use of RT-PCR (n=4).

NFχB mRNA = assay: Semi-quantitative RT-PCR determination of NFχB mRNA levels in HT-29 cells; format: cell-based; conditions: for NFχB/GAPDH [AUC]: 150 μM flavone, n = 4
Procedure: as §1, §2, §3, §4

O=c1cc(-c2ccccc2)oc2ccccc12 [flavone, Flavone] was tested, and the “COX-2 transcript levels (in words)” value (COX-2 mRNA; HT-29 cells exposed to flavone for 48 h) was “diminished in its transcript levels drastically”, the “COX-2/GAPDH [AUC]” value (COX-2 mRNA; incubation time 3 h) was 0.69 AUC and the “COX-2/GAPDH [AUC]” value (COX-2 mRNA; incubation time 8 h) was 0.35 AUC. For the same compound, the “NFχB/GAPDH [AUC]” value (NFχB mRNA; incubation time 3 h) was 1.1 AUC, the “NFχB/GAPDH [AUC]” value (NFχB mRNA; incubation time 8 h) was 1.7 AUC and the “mRNA of NFχB (in words)” value (NFχB mRNA; flavone treatment) was “reduced dramatically”.
